In paper PMC12583704 (Signal Transduction and Targeted Therapy, 2025):

Assay: Phase 1 study NCT03594422: adverse events graded by NCI CTCAE v4.03
Assay type: in vivo, human
Protocol: Part 1 was a dose-escalation study to determine the recommended phase 2 dose (RP2D) in solid tumors. […] The initial design was a 3 + 3 dose escalation from 20 mg, but the protocol was amended to randomly enroll and assign patients to starting doses of 30, 40, and 50 mg on the basis of safety data acquired in the CML trial.[20] […] An interactive web response system was used for randomization. Part 2 was a nonrandomized study focusing on patients with SDH-deficient GISTs. […] On the basis of preliminary data from adult patients, adolescent patients with advanced wild-type GISTs were also included in Part 2. The dosage for adolescents was adjusted according to their body weights.
AEs were evaluated at each follow-up visit: on Days 1, 8, 15, and 22 during Cycles 1 and 2; and on Days 1 and 15 in Cycle 3 and all subsequent cycles, up to 30 days after the final dose. All AEs were graded according to the National Cancer Institute Common Terminology Criteria for Adverse Events v4.03. Clinical laboratory investigations for routine blood examinations and serum chemistry parameters were performed during every cycle (on Day 1), during Cycles 1 and 2 (on Days 8, 15, and 22), and 30 days after the last dose of treatment. Urinalysis, coagulation, cardiac troponin I/T, lipase, amylase, and electrocardiographic evaluations were conducted at baseline; during Cycles 1 and 2 (on Days 1 and 15); during Cycles 3, 5, 7, and 9; every three cycles after Cycle 9 (on Day 1); and 14 days after the last dose of treatment. All patients underwent tumor imaging for response assessment via computed tomography or magnetic resonance imaging at screening and every two cycles (8 weeks) until progression or discontinuation. Target and nontarget lesions were assessed per the Response Evaluation Criteria in Solid Tumors version 1.1 (RECIST v1.1).

Cc1ccc(C(=O)Nc2ccc(CN3CCN(C)CC3)c(C(F)(F)F)c2)cc1C#Cc1cnc2[nH]ncc2c1 [Olverembatinib, 3-[(1H-pyrazolo[3,4-b]pyridin-5-yl)ethynyl]-4-methyl-N-{4-[(4-methylpiperazin-1-yl)methyl]-3-(trifluoromethyl)phenyl]benzamide]
8 (53.3) n (%): TEAE: Anemia (30 mg (n = 15), Any grade) | TEAE: Leukocyte count increased (30 mg (n = 15), Any grade)
4 (26.7) n (%): TEAE: Fatigue (30 mg (n = 15), Any grade) | TEAE: Hypoalbuminemia (30 mg (n = 15), Any grade) | TRAE: ALT increased (30 mg (n = 15), Any grade)
7 (46.7) n (%): TEAE: Aspartate aminotransferase increased (30 mg (n = 15), Any grade) | TEAE: Hyperuricemia (30 mg (n = 15), Any grade)
2 (66.7) n (%): TEAE: Constipation (20 mg (n = 3), Any grade) | TEAE: Hyperuricemia (20 mg (n = 3), Any grade)
3 (100.0) n (%): TEAEs (20 mg (n = 3), Any grade)
5 (33.3) n (%): TEAE: Abdominal pain (30 mg (n = 15), Any grade) | TEAE: Constipation (30 mg (n = 15), Any grade) | TEAE: Pyrexia (30 mg (n = 15), Any grade)
0 n (%): TEAE: Abdominal pain (20 mg (n = 3), Any grade) | TEAE: Alanine aminotransferase increased (20 mg (n = 3), Any grade) | TEAE: Aspartate aminotransferase increased (20 mg (n = 3), Any grade) | TEAE: C-reactive protein increased (20 mg (n = 3), Any grade) | TEAE: Fatigue (20 mg (n = 3), Any grade) | TEAE: Hypoalbuminemia (20 mg (n = 3), Any grade) | TEAE: Melanocytic nevus (20 mg (n = 3), Any grade) | TEAE: Pyrexia (20 mg (n = 3), Any grade) | TRAE: ALT increased (20 mg (n = 3), Any grade) | TRAE: AST increased (20 mg (n = 3), Any grade) | TRAE: Anemia (20 mg (n = 3), Any grade) | TRAE: Blood creatinine increased (20 mg (n = 3), Any grade) | TRAE: Fatigue (20 mg (n = 3), Any grade) | TRAE: Hypoalbuminemia (20 mg (n = 3), Any grade) | TRAE: Melanocytic nevus (20 mg (n = 3), Any grade) | TRAE: Platelet count increased (20 mg (n = 3), Any grade) | TRAE: Pyrexia (20 mg (n = 3), Any grade) | TEAE: Abdominal pain (20 mg (n = 3), Grade 3-5) | TEAE: Alanine aminotransferase increased (20 mg (n = 3), Grade 3-5) | TEAE: Anemia (20 mg (n = 3), Grade 3-5) | TEAE: Aspartate aminotransferase increased (20 mg (n = 3), Grade 3-5) | TEAE: C-reactive protein increased (20 mg (n = 3), Grade 3-5) | TEAE: Constipation (20 mg (n = 3), Grade 3-5) | TEAE: Fatigue (20 mg (n = 3), Grade 3-5) | TEAE: Hyperuricemia (20 mg (n = 3), Grade 3-5) | TEAE: Hypoalbuminemia (20 mg (n = 3), Grade 3-5) | TEAE: Leukocyte count increased (20 mg (n = 3), Grade 3-5) | TEAE: Melanocytic nevus (20 mg (n = 3), Grade 3-5) | TEAE: Neutrophil count increased (20 mg (n = 3), Grade 3-5) | TEAE: Pyrexia (20 mg (n = 3), Grade 3-5) | TEAEs (20 mg (n = 3), Grade 3-5) | TRAE: ALT increased (20 mg (n = 3), Grade 3-5) | TRAE: AST increased (20 mg (n = 3), Grade 3-5) | TRAE: Anemia (20 mg (n = 3), Grade 3-5) | TRAE: Blood creatinine increased (20 mg (n = 3), Grade 3-5) | TRAE: Constipation (20 mg (n = 3), Grade 3-5) | TRAE: Fatigue (20 mg (n = 3), Grade 3-5) | TRAE: Hypoalbuminemia (20 mg (n = 3), Grade 3-5) | TRAE: Leukocyte count increased (20 mg (n = 3), Grade 3-5) | TRAE: Melanocytic nevus (20 mg (n = 3), Grade 3-5) | TRAE: Neutrophil count increased (20 mg (n = 3), Grade 3-5) | TRAE: Platelet count increased (20 mg (n = 3), Grade 3-5) | TRAE: Pyrexia (20 mg (n = 3), Grade 3-5)
15 (100.0) n (%): TEAEs (30 mg (n = 15), Any grade)
3 (20.0) n (%): TEAE: C-reactive protein increased (30 mg (n = 15), Any grade) | TEAE: Melanocytic nevus (30 mg (n = 15), Any grade)
6 (40.0) n (%): TEAE: Alanine aminotransferase increased (30 mg (n = 15), Any grade) | TEAE: Neutrophil count increased (30 mg (n = 15), Any grade)
1 (33.3) n (%): TEAE: Anemia (20 mg (n = 3), Any grade) | TEAE: Leukocyte count increased (20 mg (n = 3), Any grade) | TEAE: Neutrophil count increased (20 mg (n = 3), Any grade) | TRAE: Constipation (20 mg (n = 3), Any grade) | TRAE: Leukocyte count increased (20 mg (n = 3), Any grade) | TRAE: Neutrophil count increased (20 mg (n = 3), Any grade)
